Test results from ChEMBL document CHEMBL3856287, “Synthesis of novel tetrazole derivatives and evaluation of their antifungal activity” (Bioorg Med Chem, 2016).
In brackets after ≈: the same amount, converted by molar mass.

Assays:
[1] = tested on: Candida albicans; experiment: Antifungal activity against Candida albicans ATCC 90028 assessed as growth inhibition at 8 ug/ml after 48 hrs by broth microdilution method relative to control; type: functional; conditions: ATCC 90028, 48 h, read-out: GI
[2] = tested on: Candida albicans; experiment: Antifungal activity against Candida albicans ATCC 90028 assessed as growth inhibition at 16 ug/ml after 48 hrs by broth microdilution method relative to control; type: functional; conditions: ATCC 90028, 48 h, read-out: GI
[3] = tested on: Candida albicans; experiment: Antifungal activity against Candida albicans ATCC 90028 assessed as growth inhibition at 0.0625 ug/ml after 48 hrs by broth microdilution method relative to control; type: functional; conditions: ATCC 90028, 48 h, read-out: GI
[4] = tested on: Candida albicans; experiment: Antifungal activity against Candida albicans ATCC 90028 assessed as growth inhibition at 1 ug/ml after 48 hrs by broth microdilution method relative to control; type: functional; conditions: ATCC 90028, 48 h, read-out: GI
[5] = Antifungal activity against Fusarium sambucinum MF1 assessed as radial growth inhibition at 64 ug/ml after 5 to 7 days relative to control; type: functional
[6] = tested on: Candida albicans; experiment: Antifungal activity against Candida albicans ATCC 90028 assessed as growth inhibition at 4 ug/ml after 48 hrs by broth microdilution method relative to control; type: functional; conditions: ATCC 90028, 48 h, read-out: GI
[7] = tested on: Candida albicans; experiment: Antifungal activity against Candida albicans ATCC 90028 assessed as growth inhibition at 0.0313 ug/ml after 48 hrs by broth microdilution method relative to control; type: functional; conditions: ATCC 90028, 48 h, read-out: GI
[8] = tested on: Candida albicans; experiment: Antifungal activity against Candida albicans ATCC 90028 assessed as growth inhibition at 0.25 ug/ml after 48 hrs by broth microdilution method relative to control; type: functional; conditions: ATCC 90028, 48 h, read-out: GI
[9] = tested on: Aspergillus niger; experiment: Antifungal activity against Aspergillus niger ATCC 16404 assessed as radial growth inhibition at 64 ug/ml after 5 to 7 days relative to control; type: functional; conditions: read-out: GI
[10] = Antifungal activity against Colletotrichum coccodes MC1 assessed as radial growth inhibition at 64 ug/ml after 5 to 7 days relative to control; type: functional
[11] = Antifungal activity against Fusarium oxysporum MF5 assessed as radial growth inhibition at 64 ug/ml after 5 to 7 days relative to control; type: functional
[12] = tested on: Candida albicans; experiment: Antifungal activity against Candida albicans ATCC 90028 assessed as growth inhibition at 0.5 ug/ml after 48 hrs by broth microdilution method relative to control; type: functional; conditions: ATCC 90028, 48 h, read-out: GI
[13] = tested on: Candida albicans; experiment: Antifungal activity against Candida albicans ATCC 90028 assessed as growth inhibition at 0.125 ug/ml after 48 hrs by broth microdilution method relative to control; type: functional; conditions: ATCC 90028, 48 h, read-out: GI
[14] = tested on: Candida albicans; experiment: Antifungal activity against Candida albicans ATCC 90028 assessed as growth inhibition at 2 ug/ml after 48 hrs by broth microdilution method relative to control; type: functional; conditions: ATCC 90028, 48 h, read-out: GI
[15] = Antifungal activity against Colletotrichum coccodes MC1 assessed as radial growth inhibition at 32 ug/ml after 5 to 7 days relative to control; type: functional
[16] = Antifungal activity against Fusarium oxysporum MF5 assessed as radial growth inhibition at 32 ug/ml after 5 to 7 days relative to control; type: functional
[17] = Antifungal activity against Fusarium sambucinum MF1 assessed as radial growth inhibition at 32 ug/ml after 5 to 7 days relative to control; type: functional
[18] = tested on: Candida albicans; experiment: Fungicidal activity against Candida albicans ATCC 90028 after 48 hrs by broth microdilution method; type: functional; conditions: ATCC 90028, 48 h
[19] = tested on: Aspergillus niger; experiment: Antifungal activity against Aspergillus niger ATCC 16404 assessed as radial growth inhibition at 32 ug/ml after 5 to 7 days relative to control; type: functional; conditions: read-out: GI
[20] = tested on: Candida albicans; experiment: Antifungal activity against Candida albicans ATCC 90028 assessed as growth inhibition after 48 hrs by broth microdilution method; type: functional; conditions: ATCC 90028, 48 h
[21] = tested on: Aspergillus niger; experiment: Antifungal activity against Aspergillus niger ATCC 16404 assessed as radial growth inhibition at 16 ug/ml after 5 to 7 days relative to control; type: functional; conditions: read-out: GI
[22] = Antifungal activity against Fusarium oxysporum MF5 assessed as radial growth inhibition at 16 ug/ml after 5 to 7 days relative to control; type: functional
[23] = Antifungal activity against Colletotrichum coccodes MC1 assessed as radial growth inhibition at 16 ug/ml after 5 to 7 days relative to control; type: functional
[24] = Antifungal activity against Fusarium sambucinum MF1 assessed as radial growth inhibition at 16 ug/ml after 5 to 7 days relative to control; type: functional
[25] = tested on: Candida albicans; experiment: Antifungal activity against Candida albicans ATCC 90028 after 18 to 48 hrs in presence of 5 ug/ml fluconazole by checkerboard assay; type: functional
[26] = tested on: Candida albicans; experiment: Antifungal activity against Candida albicans ATCC 90028 after 18 to 48 hrs in presence of 80 ug/ml fluconazole by checkerboard assay; type: functional
[27] = tested on: Candida albicans; experiment: Antifungal activity against Candida albicans ATCC 90028 after 18 to 48 hrs in presence of 20 ug/ml fluconazole by checkerboard assay; type: functional
[28] = tested on: Candida albicans; experiment: Antifungal activity against Candida albicans ATCC 90028 after 18 to 48 hrs in presence of 2.5 ug/ml fluconazole by checkerboard assay; type: functional
[29] = tested on: Candida albicans; experiment: Antifungal activity against Candida albicans ATCC 90028 after 18 to 48 hrs in presence of 10 ug/ml fluconazole by checkerboard assay; type: functional
[30] = Toxicity in last instar larval stage of Galleria mellonella assessed as survival at 16 ug/ml after 96 hrs
[31] = tested on: Candida albicans; experiment: Antifungal activity against Candida albicans ATCC 90028 assessed as growth inhibition after 48 hrs in presence of osmotic protector 0.8 M sorbitol by broth microdilution method; type: functional; conditions: ATCC 90028, 48 h
[32] = tested on: Candida albicans; experiment: Antifungal activity against Candida albicans ATCC 90028 assessed as growth inhibition after 18 to 48 hrs in presence of 1.25 ug/ml fluconazole by checkerboard assay; type: functional
[33] = tested on: Candida albicans; experiment: Antifungal activity against Candida albicans ATCC 90028 assessed as growth inhibition after 7 days in presence of osmotic protector 0.8 M sorbitol by broth microdilution method; type: functional; conditions: ATCC 90028, 168 h
[34] = tested on: Candida albicans; experiment: Fungicidal activity against Candida albicans ATCC 90028 at MIC after 7 days in presence of osmotic protector 0.8 M sorbitol by broth microdilution method; type: functional
[35] = tested on: Candida albicans; experiment: Antifungal activity against Candida albicans ATCC 90028 after 18 to 48 hrs in presence of 1.25 ug/ml fluconazole by checkerboard assay; type: functional
[36] = tested on: Candida albicans; experiment: Antifungal activity against Candida albicans ATCC 90028 after 18 to 48 hrs in presence of 40 ug/ml fluconazole by checkerboard assay; type: functional
[37] = tested on: Candida albicans; experiment: Fungicidal activity against Candida albicans ATCC 90028 at MIC after 48 hrs in presence of osmotic protector 0.8 M sorbitol by broth microdilution method; type: functional
[38] = tested on: Candida albicans; experiment: Antifungal activity against Candida albicans ATCC 90028 assessed as fractional inhibitory concentration index after 18 to 48 hrs in presence of fluconazole by checkerboard assay; type: functional
[39] = tested on: Candida albicans; experiment: Antifungal activity against Candida albicans ATCC 90028 assessed as fractional inhibitory concentration after 18 to 48 hrs in presence of fluconazole by checkerboard assay; type: functional
[40] = Toxicity in last instar larval stage of Galleria mellonella assessed as decrease in survival at 0.33% after 96 hrs

Structure (SMILES) | inhibition of growth at 8 µg/mL [1] [%] | inhibition of growth at 16 µg/mL [2] [%] | inhibition of growth at 0.0625 µg/mL [3] [%] | inhibition of growth at 1 µg/mL [4] [%] | growth inhibition (GI) [5] [%] | inhibition of growth at 4 µg/mL [6] [%] | inhibition of growth at 0.0313 µg/mL [7] [%] | inhibition of growth at 0.25 µg/mL [8] [%] | inhibition of growth at 64 µg/mL [9] [%] | growth inhibition (GI) [10] [%] | growth inhibition (GI) [11] [%] | inhibition of growth at 0.5 µg/mL [12] [%] | inhibition of growth at 0.125 µg/mL [13] [%] | inhibition of growth at 2 µg/mL [14] [%] | also measured
Cc1ccc(-c2nnn(CCCSc3nc4ccccc4s3)n2)cc1 | 99 | 98.8 | 98.8 | 98.9 | 0 | 98.9 | 98.8 | 98.6 | 3 | 33.4 | 0 | 98.7 | 98.8 | 98.6 | 
c1ccc(-c2nnn(CCCSc3nc4ccccc4o3)n2)cc1 |  |  |  |  | 27 |  |  |  | 20.6 | 43.4 | 6 |  |  |  | 
OC(Cn1cncn1)(Cn1cncn1)c1ccc(F)cc1F [FLUCONAZOLE] |  |  |  |  |  |  |  |  |  |  |  |  |  |  | growth inhibition (GI) [15]: 100%; growth inhibition (GI) [16]: 17.6%; growth inhibition (GI) [17]: 67.7%; MFC [18]: 0.5 µg/mL (≈ 1.63 µM); inhibition of growth at 32 µg/mL [19]: 52.9%; MIC [20]: 0.25 µg/mL (≈ 0.816 µM)
O=S(=O)(CCn1nnc(-c2ccc(Cl)cc2)n1)c1ccccc1 | 99.5 |  |  | 99.4 | 1.8 | 99.4 | 99 | 99.3 | 11.2 | 18.4 | 1.7 | 99.4 | 99.3 | 99.4 | 
O=S(=O)(CCn1nnc(-c2ccccc2)n1)c1ccccc1 | 99.1 | 99.1 | 99 | 99 | 14.5 | 98.9 | 99.1 | 99 | 18.5 | 41.1 | 17.7 | 98.9 | 98.7 | 99 | 
O=S(=O)(CCn1nnc(-c2ccccc2Cl)n1)c1ccccc1 | 98 | 98.5 | 98.4 | 98.2 | 35.6 | 97.8 | 98.6 | 98.1 | 17.1 | 43.4 | 31.2 | 98.2 | 97.8 | 97.9 | 
c1ccc(-c2nnn(CCCSc3nc4ccccc4s3)n2)cc1 |  |  |  |  | 13 |  |  |  | 4.4 | 23.4 | 0 |  |  |  | 
C[C@@H]1[C@H](O)[C@@H](C)/C=C/C=C/C=C/C=C/C=C/C=C/C=C/[C@H](O[C@@H]2O[C@H](C)[C@@H](O)[C@H](N)[C@@H]2O)C[C@@H]2O[C@](O)(C[C@@H](O)C[C@@H](O)[C@H](O)CC[C@@H](O)C[C@@H](O)CC(=O)O[C@H]1C)C[C@H](O)[C@H]2C(=O)O [AMPHOTERICIN B] |  |  |  |  |  |  |  |  |  |  |  |  |  |  | inhibition of growth at 16 µg/mL [21]: 100%; growth inhibition (GI) [22]: 77%; growth inhibition (GI) [23]: 86.7%; growth inhibition (GI) [24]: 86%
Clc1ccccc1-c1nnn(CCCSc2nc3ccccc3o2)n1 | 99.2 | 99.1 |  | 99.1 | 14.5 | 99.2 |  |  | 6 | 33.4 | 0 | 98.9 |  | 99.1 | Activity [25]: 100%; Activity [26]: 100%; Activity [27]: 100%; Activity [28]: 100%; Activity [29]: 100%; survival at 96 h [30]: 100%; MIC [31]: 1 µg/mL; MIC [32]: 1.25 µg/mL; MIC [33]: 1 µg/mL; Activity [34]: 97%; MIC [20]: > 16 µg/mL; Activity [35]: 100%; Activity [36]: 100%
Clc1ccc(-c2nnn(CCCSc3nc4ccccc4s3)n2)cc1 |  |  |  |  | 5 |  |  |  | 0 | 36.7 | 0 |  |  |  | 
Clc1ccc(-c2nnn(CCCSc3nc4ccccc4o3)n2)cc1 | 99.4 | 99.2 | 99.1 | 99.3 | 14.5 | 98.7 | 99 | 99.2 | 11.8 | 46.7 | 4 | 99.4 | 99.1 | 99.5 | Activity [25]: 99%; Activity [26]: 100%; Activity [27]: 98%; Activity [37]: 100%; Activity [28]: 100%; Activity [29]: 99%; survival at 96 h [30]: 100%; MIC [31]: 1 µg/mL; MIC [32]: 1.25 µg/mL; fractional inhibitory concentration index (FICI) [38]: 5.08; MIC [33]: 1 µg/mL; Ratio [39]: 0.08; Activity [34]: 100%; MIC [20]: > 16 µg/mL; Activity [35]: 100%; Activity [36]: 100%
C[S+](C)[O-] [DIMETHYL SULFOXIDE] |  |  |  |  |  |  |  |  |  |  |  |  |  |  | Activity [40]: Non-Toxic
Clc1ccccc1-c1nnn(CCCSc2nc3ccccc3s2)n1 | 98.6 | 98.8 | 98.9 | 98.7 | 5 | 98.7 | 98.8 | 98.7 | 0 | 16.7 | 0 | 98.6 | 99 | 98 | 
Cc1ccc(-c2nnn(CCCSc3nc4ccccc4o3)n2)cc1 |  |  |  |  | 16 |  |  |  | 11.8 | 43.4 | 0 |  |  |  | 
